Data from patent publication US5965544A, “Synthetic multivalent sLe^x containing polylactosamines and methods for use” (Glycim Oy, priority 1996, dated 1999).
“Also recorded” adds a separate entry of the source. Where two headings read alike, the source gives them in different places. Each block holds one compound with its values, some of them ahead of it.

Key:
[1] = system: L-selectin-dependent lymphocyte adhesion to cardiac endothelium; settings: lymphocytes and rejecting rat heart endothelium, Turunen et al. 1995; cited from earlier work
[2] = biological target: L-selectin-dependent lymphocyte adhesion to peritubular capillary endothelium (PTCE); assay: Stamper-Woodruff binding assay: lymphocyte adhesion to peritubular capillary endothelium of rejecting kidney allografts; settings: for IC50: read-out: IC50, inhibitory concentration preventing 50% of binding, L-selectin-dependent lymphocyte binding, rejecting rat kidney transplant; for inhibition of lymphocyte binding to PTCE (in words) / inhibitory capacity compared with other oligosaccharides (in words): rejecting kidney allografts
Excerpt: The animal models for cardiac transplant rejection and kidney transplant rejection utilized inbred WF (RT1^v) and DA (RT1^a) rat strains that were maintained in a colony and regularly tested for intrastrain acceptance of transplants as well as for the absence of intrastrain mixed lymphocyte culture. DA transplants into WF recipients were allografts, WF grafts to WF and DA grafts to DA served as syngeneic controls.
Small pieces of the removed syngeneic (DA to DA and WF to WF), allogeneic (DA to WF) transplants were mounted in Tissue Tek medium (Lab-Tek Productions, Naperville, Ill.) and snapfrozen in liquid nitrogen. Eight μm thick frozen sections were prepared within one hour prior to the use of the sections in the lymphocyte--endothelium binding assay (Renkonen, R. et al., Transplantation 47:577-579 (1989); Renkonen, R. et al., Am. J. Pathol. 137:643-651 (1990); Turunen J. P. et al., Transplantation 54:1053-1058 (1992); Turunen, J. P. et al., Eur. J. Immunol. 24:1130-1136 (1994); Turunen, J. P. et al., J. Exp. Med., 182:1133-1142 (1995)).
Single cell suspensions of mesenterical lymph node lymphocytes were made by mechanical disaggregation in RPMI 1640 medium (Gibco, Grand Island, N.Y.) supplemented with Hepes (25 mM) and 0.5% fetal calf serum and the cells were passed through a 50 μm pore size mesh. Over 99% of the cells were lymphocytes, and the lymphocyte population consisted of 80-90% CD3-positive T cells, 50-60% CD4-positive T cells, 25-35% CD8-positive T cells and 10-20% CD19-positive B cells, as analyzed by flow cytometric analyses and immunoperoxidase stainings from cytocentrifuge preparations.
3×10^6 cells in 100 μl of the medium were plated on top of the tissue sections using a wax pen circle to avoid escape of the fluid. The sections were rotated horizontally on a shaker at 60 rpm for 30 minutes at +4° C. After incubation, the medium was gently tapped away by an absorbent paper and the slides were fixed in 1.5% cold glutaraldehyde overnight. The slides were stained with thionine for 30 min. The excess thionine was gently washed away from the slides in PBS, and the slides were mounted with PBS-glycerol (1:1) or Aquamount Mountant, (BHD Limited, Poole, England). From these preparations the number of lymphocytes bound to various structures was determined. At least 10-20 high power fields were analyzed from each sample and 3-4 animals were included in each group.
The oligosaccharides were dissolved in the binding buffer, and the lymphocytes were incubated in these solutions for 30 min in +4° C. Thereafter, the lymphocytes at the saccharide solutions were added to the Stamper-Woodruff binding assay without further washings and the assay was conducted as described above.
The lymphocytes were, or were not, pretreated for 30 min with various oligosaccharide constructs and added to the Stamper-Woodruff binding assay. After a 30 min binding assay the loose cells were washed away and the number of bound cells were determined.
The binding assays consisted of three experiments performed on separate days.

[3] = system: L-selectin-dependent lymphocyte adhesion to cardiac endothelium; assay: Stamper-Woodruff binding assay: lymphocyte adhesion to endothelium of rejecting cardiac transplants; assay type: cell-based, rat; settings: rejecting cardiac allografts
Excerpt: The inhibition of lymphocyte adhesion to cardiac endothelium during acute rejection episodes by oligosaccharides was examined using the family of oligosaccharides synthesized by enzyme-aided synthesis in Example 2: monovalent sLex tetrasaccharide (1), divalent sLex decasaccharide (4) and tetravalent sLex 22-meric oligosaccharide (9) and their non-fucosylated sialyl lactosamine analogues (3, 8). […] Concomitantly the non-fucosylated sialyl-lactosamine glycans were without effect.
In parallel experiments the capacity of the tetravalent sLex glycans 9 and 17, and of the nonfucosylated analogs glycan 8 and glycan 16, were compared in inhibiting L-selectin-dependent lymphocyte adhesion to cardiac endothelium during acute rejection. The lymphocytes were preincubated for 30 min with varying concentrations of the oligosaccharides and used thereafter in the Stamper-Woodruff binding assay in the incubation media as described in Example 1.

CD22 = settings: cited from earlier work
adhesion = settings: Stoolman et al. 1984; cited from earlier work
[4] = system: mouse sperm adhesion to eggs; settings: Litscher et al. 1995; cited from earlier work
[5] = system: P-selectin mediated inflammation; settings: low concentrations; cited from earlier work
inflammation = settings: cited from earlier work
[6] = listed as disialylated and difucosylated branched polylactosamine decasaccharide

IC50 [2]: 1000 nM
IC50 [2, 6]: 500 nM
inhibitory capacity compared with other oligosaccharides (in words) [2, 6]: less effective inhibitor
inhibition of lymphocyte adhesion to cardiac endothelium (in words) [3]: significantly reduce lymphocyte binding
Compound: NeuAcα2-3Galβ1-4(Fucα1-3)GlcNAcβ1-3(NeuAcα2-3Galβ1-4(Fucα1-3)GlcNAcβ1-6)Galβ1-4GlcNAc [Glycan 4]
published Stamper-Woodruff data compared with the present ones [1]: quite similar to the present ones
inhibition of lymphocyte binding to PTCE (in words) [2]: able to inhibit the lymphocyte binding to PTCE significantly
inhibitory capacity compared with other oligosaccharides (in words) [2]: slightly weaker inhibitor than 28; also recorded: lesser inhibitory capacity than the alditol 28

inhibition of lymphocyte binding to PTCE (in words) ([2]; listed as non-fucosylated O-glycosidic oligosaccharide alditol): did not possess any inhibitory activity
Compound: NeuAcα2-3Galβ1-4GlcNAcβ1-3(NeuAcα2-3Galβ1-4GlcNAcβ1-6)Galβ1-4GlcNAcβ1-6(Galβ1-3)GalNAc-ol [Glycan 26]
inhibition of lymphocyte binding to PTCE (in words) [2]: practically devoid of inhibitory activity; also recorded: did not inhibit the lymphocyte binding at all; also recorded: did not possess any inhibitory activity

Compound: CC(=O)N[C@H]1[C@H]([C@H](O)[C@H](O)CO)O[C@@](OC[C@H]2O[C@@H](O[C@H]3[C@H](O)[C@@H](NC(C)=O)C(O)O[C@@H]3CO)[C@H](O)[C@@H](O)[C@H]2O)(C(=O)O)C[C@@H]1O (stereo partly drawn) [NeuAca2-6GalB1-4GlcNAc]
binding / affinity to CD22 (CD22): binds specifically

Compound: fucoidin
concentration that blocked adhesion (adhesion): in the nM range

Compound: CC(=O)NC1C(O)OC(CO)C(OC2OC(CO)C(O)C(OC3OC(CO)C(OC4OC(CO)C(O)C(OC5OC(CO)C(O)C(O)C5O)C4O)C(O)C3NC(C)=O)C2O)C1O (stereo not drawn) [Galα1-3Galβ1-4GlcNAcβ1-3Galβ1-4GlcNAc]
inhibition of mouse sperm adhesion to eggs [4]: does not

Compound: NeuAcα2-3Galβ1-4(Fucα1-3)GlcNAc [Glycan 1]
published Stamper-Woodruff data compared with the present ones [1]: quite similar to the present ones
decrease of lymphocyte adhesion / prevented L-selectin-dependent lymphocyte binding ([2]; at 0.5 μM): 39%
inhibition of lymphocyte binding to PTCE (in words) [2]: able to inhibit the lymphocyte binding to PTCE significantly
inhibition of short-term P-selectin mediated inflammation [5]: inhibiting short-term P-selectin mediated inflammation
inhibition of lymphocyte adhesion to cardiac endothelium (in words) [3]: significantly reduce lymphocyte binding
anti-inflammatory activity in vivo (inflammation): anti-inflammatory activity in vivo
